# According to paper PMC9021288 (Nature Communications, 2022):
# Where “and” joins values, the source holds several entries; their conditions need not be identical. Equal entries are not always repeated. Where two headings read alike, the source gives them in different places.
# Assays:
# [1] = system: P. falciparum NF54 asexual blood-stage parasites; assay: 72-h asexual blood-stage replication assay (SYBR Green); type: cell-based, Plasmodium falciparum; conditions: asexual blood stages NF54 parasites; read-out: IC50
# Method: (§1) Replication assays were performed using a SYBR Green method as described previously. Briefly, asynchronous parasites were diluted to 0.83% parasitemia, 3% hematocrit in 30 µl medium, and added to 30 µl of diluted compounds in medium (0.1% DMSO final concentration) in black 384-wells plates. After a 72-h incubation, 30 µl of SYBR Green diluted in lysis buffer was added according to the manufacturer’s protocol (Life Technologies). Fluorescence intensity was measured on a BioTek Synergy 2 Plate Reader after 1-h incubation and was normalized to a DMSO control (100% growth) and DHA- or epoxomicin-treatment (no growth). […] Parasite survival was assessed by flow cytometry on an Accuri C6 (BD Biosciences) with BD C6 Plus software using SYBR Green and MitoTracker Deep Red FM (Life Technologies) as nuclear stain and vital dye, respectively, and data were analyzed using FlowJo (10.5.0). […] Luminescence was measured after 72 h using the Renilla-Glo(R) Luciferase Assay System (Promega E2750) and the GlomAX® Discover Multimode Microplate Reader (Promega). The luminescence values were normalized to DMSO vehicle (100% growth) and 200 nM chloroquine-treated (no growth) samples as controls.
# Dose-response assays were analyzed by a nonlinear regression using a four-parameter model and the least squares method to find the best fit. One-way Analysis of variance (ANOVA) was performed using the Bonferroni’s Multiple Comparison Test. For the majority of experiments, 2-4 biological replicates were performed. Typically, 2 replicates were performed for screening activities, and a minimum of 3 replicates are performed for other experiments unless stated otherwise.
# [2] = system: cryopreserved human primary hepatocytes; assay: in vitro; conditions: human, hepatocytes
# From the text: Briefly, cryopreserved human primary hepatocytes were thawed and cultured as described above.
# [3] = system: P. falciparum NF54-HGL, dT648M, cT648M, cT627A asexual blood stages; assay: Asexual drug-sensitivity of AcAS mutant parasites; type: cell-based, Plasmodium falciparum; parameters: key to asexual blood stages growth, dose-response: % growth; DMSO control = 100%, DHA/epoxomicin = no growth
# Method: as §1
# The mutation found in selected drug-resistant parasites was verified by introducing the point mutations in AcAS (T648M and T627A) in NF54-HGL parasites using a CRISPR-Cas9 system as described previously. The oligonucleotides for the guide RNA and the donor template were cloned into a pDC2-based plasmid containing a Cas9 and guide cassette, using the BbsI and EcoRI/AatII restriction sites, respectively. Donor DNA was amplified by (overlap-extension) PCR amplification from genomic P. falciparum DNA and oligonucleotides for the guide RNAs were ordered (Sigma-Aldrich). The correct sequence and integration of both inserts were confirmed by Sanger Sequencing.
# [4] = system: P. falciparum T648M / T627A AcAS mutant gametocytes; type: cell-based, Plasmodium falciparum
# Method: Gametocyte viability assays on NF54-HGL parasites were performed using an adapted high-throughput protocol as previously described[15],[64]. In short, asexual blood-stage parasite cultures were set up at 1% parasitemia in a semi-automated shaker system at 5% hematocrit. From day four until day eight or nine, parasites were treated with 50 mM N-acetyl glucosamine to eliminate all asexual blood-stage parasites. Subsequently, gametocytes were isolated by a Percoll density gradient centrifugation. At day 11, gametocytes were seeded (5,000 per well) in 30 µl in white 384-well plates containing 30 µl of compounds diluted in medium (0.1% DMSO). After a 72-h incubation, 30 µl of ONE-Glo reagent (Promega) was added according to manufacturer’s protocol and luminescence was quantified using the BioTek Synergy 2 Plate reader. Values were normalized to DMSO- and epoxomicin or dihydroartemisinin-treated controls.
# [5] = system: P. falciparum NF54 asexual blood-stage parasites; parameters: method as in earlier work; conditions: ref 15 (Schalkwijk et al.); cited from earlier work
# [6] = cT627A, Log concentration (M) -7.5
# [7] = cT627A, Log concentration (M) -8
# [8] = cT627A, Log concentration (M) -8.5
# [9] = cT627A, Log concentration (M) -9
# [10] = cT627A, Log concentration (M) -9.5
# [11] = cT627A, Log concentration (M) -10
# [12] = cT648M, Log concentration (M) -6
# [13] = cT648M, Log concentration (M) -6.5
# [14] = cT648M, Log concentration (M) -7
# [15] = cT648M, Log concentration (M) -7.5
# [16] = cT648M, Log concentration (M) -8
# [17] = cT648M, Log concentration (M) -8.5
# [18] = cT648M, Log concentration (M) -9
# [19] = cT648M, Log concentration (M) -9.5
# [20] = cT648M, Log concentration (M) -10
# [21] = dT648M, Log concentration (M) -6
# [22] = dT648M, Log concentration (M) -6.5
# [23] = dT648M, Log concentration (M) -7
# [24] = dT648M, Log concentration (M) -7.5
# [25] = dT648M, Log concentration (M) -8
# [26] = dT648M, Log concentration (M) -8.5
# [27] = dT648M, Log concentration (M) -9
# [28] = dT648M, Log concentration (M) -9.5
# [29] = dT648M, Log concentration (M) -10
smiles,measurement,setting,value
CC(CNC(=O)C(O)C(C)(C)CO)NC(=O)CCc1ccccc1F (stereo in doubt) [MMV689258],IC50,[1],7 nM
same,Human hepatocyte CLint,[2],0.8 µl/min/10^6 cells
same,"asexual blood stages growth, dose-response","[3]; NF54-HGL, Log concentration (M) -9",76.1 and 93.6 and 100.55
same,"asexual blood stages growth, dose-response","[3]; NF54-HGL, Log concentration (M) -9.5",86.25 and 83.5 and 106.05
same,"asexual blood stages growth, dose-response","[3]; NF54-HGL, Log concentration (M) -10",96.25 and 97.9 and 112.35
same,"asexual blood stages growth, dose-response",[3]; [6],91.7 and 68.35 and 87.5
same,"asexual blood stages growth, dose-response",[3]; [7],98.75 and 75.4 and 102
same,"asexual blood stages growth, dose-response",[3]; [8],98.95 and 109.7 and 103.8
same,"asexual blood stages growth, dose-response",[3]; [9],93.85 and 110.4 and 101.9
same,"asexual blood stages growth, dose-response",[3]; [10],95.15 and 100.65 and 102.3
same,"asexual blood stages growth, dose-response",[3]; [11],92.1 and 102.75
same,"asexual blood stages growth, dose-response",[3]; [12],85.3 and 76.95 and 95.6
same,"asexual blood stages growth, dose-response",[3]; [13],97.25 and 93 and 109.55
same,"asexual blood stages growth, dose-response",[3]; [14],112 and 98.45 and 99.1
same,"asexual blood stages growth, dose-response",[3]; [15],108.7 and 101 and 101.4
same,"asexual blood stages growth, dose-response",[3]; [16],108.05 and 99.35 and 97.85
same,"asexual blood stages growth, dose-response",[3]; [17],99.1 and 110.25 and 104.05
same,"asexual blood stages growth, dose-response",[3]; [18],88.2 and 96.6 and 106.85
same,"asexual blood stages growth, dose-response",[3]; [19],95.65 and 97.35 and 100.3
same,"asexual blood stages growth, dose-response",[3]; [20],86.35 and 97.9 and 99.6
same,"asexual blood stages growth, dose-response",[3]; [21],86.55
same,"asexual blood stages growth, dose-response",[3]; [22],89.25
same,"asexual blood stages growth, dose-response",[3]; [23],95.15
same,"asexual blood stages growth, dose-response",[3]; [24],99.65
same,"asexual blood stages growth, dose-response",[3]; [25],89.85
same,"asexual blood stages growth, dose-response",[3]; [26],92.65
same,"asexual blood stages growth, dose-response",[3]; [27],97.45
same,"asexual blood stages growth, dose-response",[3]; [28],97
same,"asexual blood stages growth, dose-response",[3]; [29],99.15
same,"gametocyte viability, dose-response","[4]; cT627A, Log concentration (M) -6",54.65 and 65.95 and 38.25
same,"gametocyte viability, dose-response","[4]; cT627A, Log concentration (M) -6.5",66.35 and 84.15 and 69.3
same,"gametocyte viability, dose-response","[4]; cT627A, Log concentration (M) -7",85 and 95.75 and 66.7
same,"gametocyte viability, dose-response",[4]; [6],95.85 and 91.8 and 94.3
same,"gametocyte viability, dose-response",[4]; [7],92.9 and 96.45 and 100.2
same,"gametocyte viability, dose-response",[4]; [8],84.65 and 95.2 and 101.25
same,"gametocyte viability, dose-response",[4]; [9],97.55 and 97.85 and 111.3
same,"gametocyte viability, dose-response",[4]; [10],87.2 and 101.95 and 102.75
same,"gametocyte viability, dose-response",[4]; [11],85.8 and 97.9 and 99.85
same,"gametocyte viability, dose-response",[4]; [12],103.9 and 89.5 and 90.75
same,"gametocyte viability, dose-response",[4]; [13],103.05 and 97.85 and 100.35
same,"gametocyte viability, dose-response",[4]; [14],99.3 and 92.85 and 107.7
same,"gametocyte viability, dose-response",[4]; [15],98.25 and 95.25 and 103.7
same,"gametocyte viability, dose-response",[4]; [16],84.9 and 96.6 and 106.6
same,"gametocyte viability, dose-response",[4]; [17],104.05 and 98.15 and 101
same,"gametocyte viability, dose-response",[4]; [18],97.2 and 88.65 and 97.7
same,"gametocyte viability, dose-response",[4]; [19],106.45 and 88.2 and 104.1
same,"gametocyte viability, dose-response",[4]; [20],102.75 and 101.9 and 108.55
same,"gametocyte viability, dose-response",[4]; [21],104.25
same,"gametocyte viability, dose-response",[4]; [22],95.5
same,"gametocyte viability, dose-response",[4]; [23],100.05
same,"gametocyte viability, dose-response",[4]; [24],101.95
same,"gametocyte viability, dose-response",[4]; [25],95.3
same,"gametocyte viability, dose-response",[4]; [26],102.85
same,"gametocyte viability, dose-response",[4]; [27],93.8
same,"gametocyte viability, dose-response",[4]; [28],107.4
same,"gametocyte viability, dose-response",[4]; [29],95.7
same,IC50,[5],5 nM
